Results reported in US8937053B2, “Process for the preparation of prasugrel and several novel crystalline forms of prasugrel hydrochloride” (Sunshine Lake Pharma Co., Ltd., priority 2011, dated 2015).

Test: Solubility test (Chinese Pharmacopoeia 2010)
Type: physicochemical
Conditions: 0.1M HCl, 25±2° C., 300 mg ground powder sample, shaken 30 seconds at 5 minute intervals, 30 minutes total, dissolution judged by eye; for Solubility: hydrochloride
Experimental: According to the solubility test described in “Chinese Pharmacopoeia 2010”, Topic and Requirement 15, the grinded sample in powder form was added to a certain amount of solvent at 25±2° C. […] The solid was deemed as dissolved when no solid was detected in the mixture by human eyes.

solubility at 30 min (25 °C, simulated gastric fluid, thermodynamic from solid)	Solubility	SMILES
40 mg/mL		CC(=O)Oc1cc2c(s1)CCN(C(C(=O)C1CC1)c1ccccc1F)C2.Cl (stereo not shown) [Form B2, prasugrel hydrochloride]
	50 mg/mL	CC(=O)Oc1cc2c(s1)CCN(C(C(=O)C1CC1)c1ccccc1F)C2.Cl (stereo not shown) [Form H1, prasugrel hydrochloride]
	50 mg/mL	CC(=O)Oc1cc2c(s1)CCN(C(C(=O)C1CC1)c1ccccc1F)C2.Cl (stereo not shown) [Form H2, prasugrel hydrochloride]
	50 mg/mL	CC(=O)Oc1cc2c(s1)CCN(C(C(=O)C1CC1)c1ccccc1F)C2.Cl (stereo not shown) [Form H3, prasugrel hydrochloride]
